Assay results reported in patent US20080280997A1, “Novel Pharmaceutical or Cosmetic Carriers Containing Cyclic Acetals” (GATTEFOSSE SAS, priority 2004, published 2008).
Entries after “also recorded” stand apart in the source; their conditions may differ. Blank lines part the entries; values can stand above or below the compound they belong to.

Columns and labels:
Assay type in all cases: physicochemical
Miscibility in water = test: Miscibility in water
Excerpt: The BDM molecule is produced following the same process as that used in example 1 (without solvents), using pentanal and glycerol. The substance obtained is confirmed by GC-MS analysis. Its water solubility is approximately 2 g in 100 g water. Beyond that, turbidity appears.

[1] = Compatibility of EDM with gelling agents
Excerpt: We tested the influence of 5% EDM in gels produced using gelling agents with different chemical natures.

[2] = Solubilisation of non-water soluble active ingredients in water assisted by solvent
Excerpt: Five hydrophobic active ingredients were solubilised in water using EDM.
The following table indicates what mass of solvent (g) must be added to solubilise 1 g of a mixture comprising 98% water and 2% active ingredient.
The smaller the quantity of solvent to be added, the greater its solubilising power.

[3] = Stability of the pH of an EDM solution; conditions: 5% EDM
Procedure: The stability of solutions at different pHs after adding 5% EDM was studied.
The different solutions were prepared: • using citric acid and Na2HPO4 for pHs between 3 and 7, • using boric acid, KCl and NaOH for pHs between 8 and 10.

[4] = Solubility of EDM in oils, alcohols and water
Excerpt: 3/ Solubility of EDM in Oils and Alcohols
The solubility of EDM is studied in various oils, alcohols and water. The solubility results are expressed in g of EDM incorporable into 100 g of oil or ester before turbidity appears.

Solubility in oils = conditions: before turbidity appears
[5] = Solubilisation of UV filters with ETP, EDM and PDM; conditions: for Solubility of 1,2-butyl methoxydibenzoylmethane in the solvent: UV filter 1,2-butyl methoxydibenzoylmethane; for Solubility of Benzophenone-3 in the solvent: UV filter Benzophenone-3
Procedure: 4/ Solubilisation of Filters with ETP, EDM and PDM
The solubility of two organic UV filters (benzophenone-3 et 1,2-butyl methoxydibenzoylmethane) are assessed in ETP, EDM and PDM.
• homogenise the mixture for 30 seconds in a vortex mixer, • apply ultrasounds for 15 minutes (repeat if the filter is not miscible up to a maximum of 60 minutes), • for the following percentages, an identical quantity of UV filter is always added to a set initial quantity of solvent.
Solubility is expressed in g of filter soluble in 100 g of final solution.

[6] = Solubilisation of active ingredients in EDM; conditions: solubility in EDM
Procedure: 5/ Solubilisation of Active Ingredients in EDM
The solubility of the various active ingredients in EDM was studied. It is expressed in g of active ingredient soluble in 100 ml of EDM.

[7] = active ingredient Bisabolol nat.
[8] = active ingredient Eusolex 4360 (Benzophenone 3)
[9] = active ingredient HE eucalyptus (Eucalyptus globulus leaf oil)
[10] = active ingredient Vitamin E (Tocopherol)
[11] = buffer solution initial pH 4.25
[12] = buffer solution initial pH 6.15
[13] = buffer solution initial pH 7.15
[14] = buffer solution initial pH 10.0

water solubility (Miscibility in water; beyond that, turbidity appears): approximately 2 g in 100 g water
Compound: 2-butyl-1,3-dioxolane-4-hydroxymethyl and 2-butyl-1,3-dioxan-5-ol [BDM]
Miscibility in water (Miscibility in water): not miscible in water; also recorded: Non-miscible

Compound: 2-ethyl-4-hydroxymethyl-1,3-dioxolane and 2-ethyl-1,3-dioxan-5-ol [EDM]
Miscibility in water (Miscibility in water): Miscible
Viscosity variation ([1]; 5% EDM in gels of Blanose 7HF, Jaguar HP 105, Keltrol T, Natrosol 250HX (cell wraps: Small variation)): Small
Viscosity drop ([1]; 5% EDM in gels of Novemer EC-1, Sepigel 305): Drop >30%
Breaking of gels on adding EDM ([1]; 5% EDM, gelling agents of the different families tested): none of the gels formulated is broken
Mass of solvent to solubilise 1 g of mixture 98% water and 2% active ingredient [2, 7]: 0.9 g
Mass of solvent to solubilise 1 g of mixture 98% water and 2% active ingredient [2, 8]: 1.7 g
Mass of solvent to solubilise 1 g of mixture 98% water and 2% active ingredient [2, 9]: 1 g
Mass of solvent to solubilise 1 g of mixture 98% water and 2% active ingredient ([2]; active ingredient Menthol): 0.7 g
Mass of solvent to solubilise 1 g of mixture 98% water and 2% active ingredient [2, 10]: 2.0 g
pH after adding EDM ([3]; buffer solution initial pH 3.1): 3.15
pH at 1 month ([3]; buffer solution initial pH 3.1): 3
pH after adding EDM [3, 11]: 4.3
pH at 1 month [3, 11]: 4.2
pH after adding EDM ([3]; buffer solution initial pH 5.1): 5.15
pH at 1 month ([3]; buffer solution initial pH 5.1): 5.1
pH after adding EDM [3, 12]: 6.2
pH at 1 month [3, 12]: 6.1
pH after adding EDM [3, 13]: 7.2
pH at 1 month [3, 13]: 7.1
pH after adding EDM ([3]; buffer solution initial pH 8.0): 8.0
pH at 1 month ([3]; buffer solution initial pH 8.0): 8.0
pH after adding EDM ([3]; buffer solution initial pH 9.0): 9.1
pH at 1 month ([3]; buffer solution initial pH 9.0): 9.0
pH after adding EDM [3, 14]: 10.0
pH at 1 month [3, 14]: 10.0
pH variations observed ([3]; buffer solutions pH 3 to 10, not significant): approximately 0.1 pH units
EDM mass ([4]; in Apricot kernel oil): >100 g of EDM incorporable into 100 g of oil or ester
EDM mass ([4]; in Arlamol E (PPG-15 Stearyl Ether)): >100 g of EDM incorporable into 100 g of oil or ester
EDM mass ([4]; in Butylene Glycol): >100 g of EDM incorporable into 100 g of oil or ester
EDM mass ([4]; in Castor oil): >100 g of EDM incorporable into 100 g of oil or ester
EDM mass ([4]; in DPPG (Propylene glycol dipelargonate)): >100 g of EDM incorporable into 100 g of oil or ester
EDM mass ([4]; in Glycerine): >100 g of EDM incorporable into 100 g of oil or ester
EDM mass ([4]; in IPM (Isopropyl myristate)): >100 g of EDM incorporable into 100 g of oil or ester
EDM mass ([4]; in Labrafac CC (Caprylic/capric triglyceride)): >100 g of EDM incorporable into 100 g of oil or ester
EDM mass ([4]; in PEG-300): >100 g of EDM incorporable into 100 g of oil or ester
EDM mass ([4]; in Propylene Glycol): >100 g of EDM incorporable into 100 g of oil or ester
EDM mass ([4]; in Tegosoft TN (C12/C15 alkyl benzoate)): >100 g of EDM incorporable into 100 g of oil or ester
EDM mass ([4]; in Water): >100 g of EDM incorporable into 100 g of oil or ester
Solubility in Medium-chain triglyceride (MCT) (Solubility in oils): >100 g of solvent solubilised in 100 g of oil or ester
Solubility in Octyldodecanol myristate (ODM) (Solubility in oils): 50 g of solvent solubilised in 100 g of oil or ester
Solubility in Sunflower oil (Solubility in oils): >100 g of solvent solubilised in 100 g of oil or ester
Solubility of 1,2-butyl methoxydibenzoylmethane in the solvent [5]: >32 g of filter soluble in 100 g of final solution
Solubility of Benzophenone-3 in the solvent [5]: >40 g of filter soluble in 100 g of final solution

Compound: 2-propyl-4-hydroxymethyl-1,3-dioxolane with 2-propyl-1,3-dioxan-5-ol [PDM]
Miscibility in water (Miscibility in water): Miscible
Solubility in Medium-chain triglyceride (MCT) (Solubility in oils): >100 g of solvent solubilised in 100 g of oil or ester
Solubility in Octyldodecanol myristate (ODM) (Solubility in oils): 100 g of solvent solubilised in 100 g of oil or ester
Solubility in Sunflower oil (Solubility in oils): >100 g of solvent solubilised in 100 g of oil or ester
Solubility of 1,2-butyl methoxydibenzoylmethane in the solvent [5]: 22 g of filter soluble in 100 g of final solution
Solubility of Benzophenone-3 in the solvent [5]: 18 g of filter soluble in 100 g of final solution

Compound: CO[C@H]1CO[C@H]2[C@@H]1OC[C@H]2OC [Arlasolve DMI, Dimethyl Isosorbide, reference compound]
Mass of solvent to solubilise 1 g of mixture 98% water and 2% active ingredient [2, 7]: 2.3 g
Mass of solvent to solubilise 1 g of mixture 98% water and 2% active ingredient [2, 8]: 2.3 g
Mass of solvent to solubilise 1 g of mixture 98% water and 2% active ingredient [2, 9]: 2.2 g
Mass of solvent to solubilise 1 g of mixture 98% water and 2% active ingredient ([2]; active ingredient Menthol): 1.7 g
Mass of solvent to solubilise 1 g of mixture 98% water and 2% active ingredient [2, 10]: 5.0 g

Compound: CC(C)=CCC[C@](C)(O)C1CC=C(C)CC1 (some centres unmarked) [Bisabolol nat., Bisabolol]
Mass of active ingredient (g) [6]: >100 g of active ingredient soluble in 100 ml of EDM

Miscibility in water (Miscibility in water): Miscible
Compound: CCC1(CO)COC(C)OC1 (centres unmarked) [ETP, 2-methyl-5-ethyl-5-hydroxymethyl-1,3-dioxane]
Solubility in Medium-chain triglyceride (MCT) (Solubility in oils): >100 g of solvent solubilised in 100 g of oil or ester
Solubility in Octyldodecanol myristate (ODM) (Solubility in oils): 100 g of solvent solubilised in 100 g of oil or ester
Solubility in Sunflower oil (Solubility in oils): >100 g of solvent solubilised in 100 g of oil or ester
Solubility of 1,2-butyl methoxydibenzoylmethane in the solvent [5]: 5 g of filter soluble in 100 g of final solution
Solubility of Benzophenone-3 in the solvent [5]: 35 g of filter soluble in 100 g of final solution

Compound: CC1CCC(C(C)C)C(O)C1 (centres unmarked) [Menthol]
Mass of active ingredient (g) [6]: >100 g of active ingredient soluble in 100 ml of EDM

Compound: CCCCC(CC)COC(=O)C=Cc1ccc(OC)cc1 (centres unmarked) [Parsol MCX, Ethylhexyl methoxycinnamate]
Mass of active ingredient (g) [6]: >100 g of active ingredient soluble in 100 ml of EDM

Compound: Glycerol formal [reference compound]
Miscibility in water (Miscibility in water): Miscible
Solubility in Medium-chain triglyceride (MCT) (Solubility in oils): <12 g of solvent solubilised in 100 g of oil or ester
Solubility in Octyldodecanol myristate (ODM) (Solubility in oils): <12 g of solvent solubilised in 100 g of oil or ester
Solubility in Sunflower oil (Solubility in oils): 12 g of solvent solubilised in 100 g of oil or ester

Compound: Retinal [Vitamin A]
Mass of active ingredient (g) [6]: >100 g of active ingredient soluble in 100 ml of EDM

Compound: Tocopherol [Vitamin E]
Mass of active ingredient (g) [6]: >100 g of active ingredient soluble in 100 ml of EDM
